Where two headings read alike, the source gives them in different places.
How the values were obtained:
SARS-CoV-2 M^Pro [1] = molecular target: T1, SARS-CoV-2 M^Pro (Severe acute respiratory syndrome coronavirus 2, UniProt P0DTD1); conditions: read-out: IC50 against M^Pro; previously published inhibitors; cited from earlier work
[2] = molecular target: M^Pro-eGFP fusion protein transiently expressed in 293T cells (Severe acute respiratory syndrome coronavirus 2, UniProt P0DTD1); format: cell-based, SARS-CoV-2; conditions: read-out: Cellular EC50
SARS-CoV-2 M^Pro [3] = molecular target: T1, SARS-CoV-2 M^Pro; assay: In vitro M^Pro inhibition potency (enzymatic IC50, fluorogenic substrate Sub3); format: biochemical; conditions: 20 nM M^Pro, 10 μM Sub3, 30 min preincubation, pH 7.6

CC(C)(C)C[C@H](NC(=O)OCc1ccccc1)C(=O)N[C@H](C=O)C[C@@H]1CCNC1=O [MPI50]
IC50 (SARS-CoV-2 M^Pro [1]): 53 nM

CC1(C)[C@@H]2[C@@H](C(=O)N[C@H](C=O)C[C@@H]3CCNC3=O)N(C(=O)OC(c3ccccc3)c3ccccc3)C[C@@H]21 [MPI94]
EC50 [2]: 900 nM

CC1(C)[C@@H]2[C@@H](C(=O)N[C@H](C=O)C[C@@H]3CCNC3=O)N(C(=O)OC(c3ccc(F)cc3)c3ccc(F)cc3)C[C@@H]21 [MPI95]
EC50 [2]: 910 nM

CC1(C)[C@@H]2[C@@H](C(=O)N[C@H](C=O)C[C@@H]3CCNC3=O)N(C(=O)C(c3ccc(Cl)cc3)c3ccc(Cl)cc3)C[C@@H]21 [MPI96]
EC50 [2]: 2900 nM

CC1(C)[C@@H]2[C@@H](C(=O)N[C@H](C=O)C[C@@H]3CCNC3=O)N(C(=O)N(c3ccc(Cl)cc3)c3ccc(Cl)cc3)C[C@@H]21 [MPI97]
EC50 [2]: 1100 nM

CC1(C)[C@@H]2[C@@H](C(=O)N[C@H](C=O)C[C@@H]3CCNC3=O)N(C(=O)C(Oc3ccc(Cl)cc3)Oc3ccc(Cl)cc3)C[C@@H]21 [MPI98]
EC50 [2]: 490 nM

CC1(C)[C@@H]2[C@@H](C(=O)N[C@H](C=O)C[C@@H]3CCNC3=O)N(C(=O)[C@H](Cc3ccccc3)NC(=O)OCc3ccccc3)C[C@@H]21 [MPI99]
IC50 (SARS-CoV-2 M^Pro [3]): 270 nM | EC50 [2]: > 5000 nM

CC1(C)[C@@H]2[C@@H](C(=O)N[C@H](C=O)C[C@@H]3CCNC3=O)N(C(=O)[C@H](CC3CCCCC3)NC(=O)OCc3ccccc3)C[C@@H]21 [MPI100]
EC50 [2]: 140 nM

CC(C)(C)C[C@H](NC(=O)OCc1cccnc1)C(=O)N[C@H](C=O)C[C@@H]1CCNC1=O [MPI101]
IC50 (SARS-CoV-2 M^Pro [3]): 20 nM | EC50 [2]: > 5000 nM

CC1(C)[C@@H]2[C@@H](C(=O)N[C@H](C=O)C[C@@H]3CCNC3=O)N(C(=O)OCc3cccnc3)C[C@@H]21 [MPI102]
IC50 (SARS-CoV-2 M^Pro [3]): 28 nM | EC50 [2]: > 5000 nM

CC1(C)[C@@H]2[C@@H](C(=O)N[C@H](C#N)C[C@@H]3CCNC3=O)N(C(=O)OCc3cccnc3)C[C@@H]21 [MPI103]
IC50 (SARS-CoV-2 M^Pro [3]): 28 nM | EC50 [2]: > 5000 nM

CC(C)(C)C[C@H](NC(=O)[C@@H]1CC[C@@H]1c1ccccc1)C(=O)N[C@H](C=O)C[C@@H]1CCNC1=O [MPI104]
IC50 (SARS-CoV-2 M^Pro [3]): 79 nM | EC50 [2]: > 5000 nM

CC(C)(C)C[C@H](NC(=O)N1CC[C@@H]1c1ccccc1)C(=O)N[C@H](C=O)C[C@@H]1CCNC1=O [MPI105]
IC50 (SARS-CoV-2 M^Pro [3]): 39 nM | EC50 [2]: > 5000 nM

CC1(C)[C@@H]2[C@@H](C(=O)N[C@H](C#N)C[C@@H]3CCNC3=O)N(C(=O)[C@@H](NC(=O)C(F)(F)F)c3ccc(Cl)cc3)C[C@@H]21 [MPI106]
EC50 [2]: > 5000 nM

CC1(C)[C@@H]2[C@@H](C(=O)N[C@H](C#N)C[C@@H]3CCNC3=O)N(C(=O)[C@@H](NC(=O)C(F)(F)F)c3ccc(Cl)c(Cl)c3)C[C@@H]21 [MPI108]
EC50 [2]: > 5000 nM

— paper PMC11181478, “SARS-CoV-2 Main Protease Inhibitors That Leverage Unique Interactions with the Solvent Exposed S3 Site of the Enzyme” (ACS Medicinal Chemistry Letters, 2024)
